Source: article PMC5739597, “Discovery and evaluation of triple inhibitors of VEGFR-2, TIE-2 and EphB4 as anti-angiogenic and anti-cancer agents” (Oncotarget, 2017)
Read-outs that look alike come from different tables or passages of the source.

What was measured:
TIE-2 = TIE-2 (Homo sapiens, UniProt Q02763); experiment: ADP-Glo in vitro RTK inhibition assay, TIE-2; type: biochemical; conditions: ATP 50 μM
Method: (§1) In order to validate the direct effect of title compounds on VEGFR-2, Tie-2, and EphB4 kinases, we performed in vitro assay using the ADP-Glo Kinase Assay Kit (Promega, Wisconsin, USA).
(§2) The kinase assay was performed in a reaction mixture of final volume of 10 μL. […] The plate was incubated at 30°C for 1 h. After the plate was cooled at room temperature for 5 min, 5 μL of ADP-Glo reagent was added into each well to stop the reaction and consume the remaining […] within 40 min. At the end, 10 μL of kinase detection reagent was added into the well and incubated for 30 min to produce a luminescence signal. […] The assay plate was incubated at 30°C for 4 h. After the plate was cooled at room temperature for 5 min, 5 μL of ADP-Glo reagent was added into each well to stop the reaction and consume the remaining […] within 1 h. At the end, 10 μL of kinase detection reagent was added into each well and incubated for 30 min to produce a luminescence signal. The luminescence was read by VICTOR-X multi-label plate reader.

VEGFR-2 [1] = biological target: T1, VEGFR-2 (Homo sapiens, UniProt P35968); experiment: ADP-Glo in vitro RTK inhibition assay, VEGFR-2; type: biochemical; conditions: ATP 50 μM
T1 sequence (P35968 20-1356): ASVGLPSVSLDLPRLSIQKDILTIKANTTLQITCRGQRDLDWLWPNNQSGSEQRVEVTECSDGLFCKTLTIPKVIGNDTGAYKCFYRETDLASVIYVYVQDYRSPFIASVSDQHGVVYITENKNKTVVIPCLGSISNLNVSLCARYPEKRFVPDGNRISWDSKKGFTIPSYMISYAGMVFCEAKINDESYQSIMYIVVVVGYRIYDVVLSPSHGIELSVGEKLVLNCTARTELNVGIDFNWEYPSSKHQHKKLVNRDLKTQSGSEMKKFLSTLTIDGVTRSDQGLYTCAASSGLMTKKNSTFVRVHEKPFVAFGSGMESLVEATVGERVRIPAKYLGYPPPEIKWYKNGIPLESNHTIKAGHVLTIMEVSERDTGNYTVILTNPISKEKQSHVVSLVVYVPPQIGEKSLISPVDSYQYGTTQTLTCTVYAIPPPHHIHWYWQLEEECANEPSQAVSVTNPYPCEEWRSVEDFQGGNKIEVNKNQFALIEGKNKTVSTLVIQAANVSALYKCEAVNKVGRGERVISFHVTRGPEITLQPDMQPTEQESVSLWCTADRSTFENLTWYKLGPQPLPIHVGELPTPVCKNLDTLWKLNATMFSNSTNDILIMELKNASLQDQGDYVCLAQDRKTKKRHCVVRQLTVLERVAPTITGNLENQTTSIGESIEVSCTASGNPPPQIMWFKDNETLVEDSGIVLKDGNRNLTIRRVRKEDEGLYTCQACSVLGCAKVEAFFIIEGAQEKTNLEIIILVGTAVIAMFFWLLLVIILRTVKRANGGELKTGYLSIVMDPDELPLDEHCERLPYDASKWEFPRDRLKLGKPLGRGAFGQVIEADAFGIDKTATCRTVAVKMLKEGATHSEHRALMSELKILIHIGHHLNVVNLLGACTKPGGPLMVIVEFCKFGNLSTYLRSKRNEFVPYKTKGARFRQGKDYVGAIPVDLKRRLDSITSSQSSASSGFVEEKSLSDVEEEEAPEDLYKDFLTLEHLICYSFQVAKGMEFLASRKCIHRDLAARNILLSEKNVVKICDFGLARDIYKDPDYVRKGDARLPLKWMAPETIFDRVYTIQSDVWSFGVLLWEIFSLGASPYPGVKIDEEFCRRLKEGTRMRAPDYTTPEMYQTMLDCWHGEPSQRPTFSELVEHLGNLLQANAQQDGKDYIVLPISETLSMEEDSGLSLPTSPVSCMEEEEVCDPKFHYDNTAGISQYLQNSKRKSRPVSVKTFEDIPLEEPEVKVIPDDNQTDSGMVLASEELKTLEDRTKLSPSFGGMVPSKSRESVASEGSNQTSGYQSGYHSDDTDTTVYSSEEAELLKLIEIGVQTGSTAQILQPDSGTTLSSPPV
Method: as §1, §2

VEGFR-1 = VEGFR-1 (Homo sapiens, UniProt P17948); experiment: Kinase-Glo Plus RTK selectivity assay, VEGFR-1; type: biochemical; conditions: 10 μM ATP
Method: (§3) A 50 μL reaction mixture contains 40 mM Tris, pH 7.4, 10 mM MgCl2, 0.1 mg/ml BSA, 1 mM DTT, 10 μM ATP, kinase and substrate (0.2 mg/mL Poly(Glu, Tyr)/10 μM ATP). The test compounds were diluted in 10% DMSO and 5 μL of the dilution was added to a 50 μL reaction so that the final concentration of DMSO is 1% in all of reactions. The assay was performed using Kinase-Glo Plus luminescence kinase assay kit. It measures kinase activity by quantitating the amount of ATP remaining in solution following a kinase reaction. The luminescent signal from the assay is correlated with the amount of ATP present and is inversely correlated with the amount of kinase activity. The IC50 values were calculated using nonlinear regression with normalized dose−response fit using Prism GraphPad software.

EphB4 = biological target: T2, EphB4 (Homo sapiens, UniProt P54760); experiment: ADP-Glo in vitro RTK inhibition assay, EphB4; type: biochemical; conditions: ATP 50 μM
T2 sequence (P54760 16-987): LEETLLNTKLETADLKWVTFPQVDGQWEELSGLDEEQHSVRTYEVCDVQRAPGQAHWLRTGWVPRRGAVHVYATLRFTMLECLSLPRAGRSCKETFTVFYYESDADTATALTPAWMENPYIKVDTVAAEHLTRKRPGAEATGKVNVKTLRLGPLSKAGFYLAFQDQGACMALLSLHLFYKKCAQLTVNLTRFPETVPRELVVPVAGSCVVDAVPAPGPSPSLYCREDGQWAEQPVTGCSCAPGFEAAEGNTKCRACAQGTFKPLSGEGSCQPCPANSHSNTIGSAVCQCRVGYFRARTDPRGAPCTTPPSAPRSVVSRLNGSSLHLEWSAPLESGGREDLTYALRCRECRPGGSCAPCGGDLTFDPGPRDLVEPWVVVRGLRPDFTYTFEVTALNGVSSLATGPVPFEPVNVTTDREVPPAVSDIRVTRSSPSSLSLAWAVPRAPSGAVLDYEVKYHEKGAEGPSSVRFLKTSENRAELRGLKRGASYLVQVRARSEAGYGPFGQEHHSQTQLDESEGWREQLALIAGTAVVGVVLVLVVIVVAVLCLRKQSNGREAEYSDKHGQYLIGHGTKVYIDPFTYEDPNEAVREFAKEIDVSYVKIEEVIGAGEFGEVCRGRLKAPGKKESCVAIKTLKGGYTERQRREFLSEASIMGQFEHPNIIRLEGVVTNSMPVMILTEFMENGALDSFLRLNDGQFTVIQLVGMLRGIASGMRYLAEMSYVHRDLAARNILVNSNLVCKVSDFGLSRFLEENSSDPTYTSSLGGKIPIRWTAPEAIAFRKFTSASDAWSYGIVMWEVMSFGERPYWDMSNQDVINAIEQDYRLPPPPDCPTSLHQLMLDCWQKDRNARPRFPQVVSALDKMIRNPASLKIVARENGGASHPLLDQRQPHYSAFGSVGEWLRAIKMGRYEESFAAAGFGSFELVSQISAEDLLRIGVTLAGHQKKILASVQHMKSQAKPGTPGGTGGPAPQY
Method: as §1, §2

FGFR-1 = FGFR-1 (Homo sapiens, UniProt P11362); experiment: Kinase-Glo Plus RTK selectivity assay, FGFR-1; type: biochemical; conditions: 10 μM ATP
Sequence of FGFR-1 (P11362 22-822, species assumed): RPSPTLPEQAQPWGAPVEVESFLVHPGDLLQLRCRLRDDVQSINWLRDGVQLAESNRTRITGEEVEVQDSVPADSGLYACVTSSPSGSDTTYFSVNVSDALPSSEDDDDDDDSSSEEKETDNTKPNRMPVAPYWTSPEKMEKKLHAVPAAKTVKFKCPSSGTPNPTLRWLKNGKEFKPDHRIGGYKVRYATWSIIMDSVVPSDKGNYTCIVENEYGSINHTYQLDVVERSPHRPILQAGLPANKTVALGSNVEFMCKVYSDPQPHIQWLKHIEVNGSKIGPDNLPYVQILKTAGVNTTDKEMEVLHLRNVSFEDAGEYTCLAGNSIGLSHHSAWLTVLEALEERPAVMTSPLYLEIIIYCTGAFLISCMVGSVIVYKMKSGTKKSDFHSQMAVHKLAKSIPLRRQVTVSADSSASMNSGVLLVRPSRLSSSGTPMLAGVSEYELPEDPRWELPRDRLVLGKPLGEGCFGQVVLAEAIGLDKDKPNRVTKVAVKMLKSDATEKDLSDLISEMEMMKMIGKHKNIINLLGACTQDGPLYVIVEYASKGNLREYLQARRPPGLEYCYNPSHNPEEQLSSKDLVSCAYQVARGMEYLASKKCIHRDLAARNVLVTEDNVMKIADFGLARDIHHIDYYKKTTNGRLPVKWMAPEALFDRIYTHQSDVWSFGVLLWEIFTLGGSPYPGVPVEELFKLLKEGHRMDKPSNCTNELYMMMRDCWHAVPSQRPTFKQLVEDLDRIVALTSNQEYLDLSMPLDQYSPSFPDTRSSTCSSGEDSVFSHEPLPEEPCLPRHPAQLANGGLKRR
Method: The assay was performed using Kinase-Glo Plus luminescence kinase assay kit. It measures kinase activity by quantitating the amount of ATP remaining in solution following a kinase reaction. The luminescent signal from the assay is correlated with the amount of ATP present and is inversely correlated with the amount of kinase activity.

EGFR = EGFR (Homo sapiens, UniProt P00533); experiment: Kinase-Glo Plus RTK selectivity assay, EGFR; type: biochemical; conditions: 10 μM ATP
Method: as §3

c-Kit = c-Kit (Homo sapiens, UniProt P10721); experiment: Kinase-Glo Plus RTK selectivity assay, c-Kit; type: biochemical; conditions: 10 μM ATP
Method: as §3

B-Raf = B-Raf (Homo sapiens, UniProt P15056); experiment: Kinase-Glo Plus RTK selectivity assay, B-Raf; type: biochemical; conditions: 10 μM ATP
Sequence of B-Raf (P15056 whole entry, species assumed): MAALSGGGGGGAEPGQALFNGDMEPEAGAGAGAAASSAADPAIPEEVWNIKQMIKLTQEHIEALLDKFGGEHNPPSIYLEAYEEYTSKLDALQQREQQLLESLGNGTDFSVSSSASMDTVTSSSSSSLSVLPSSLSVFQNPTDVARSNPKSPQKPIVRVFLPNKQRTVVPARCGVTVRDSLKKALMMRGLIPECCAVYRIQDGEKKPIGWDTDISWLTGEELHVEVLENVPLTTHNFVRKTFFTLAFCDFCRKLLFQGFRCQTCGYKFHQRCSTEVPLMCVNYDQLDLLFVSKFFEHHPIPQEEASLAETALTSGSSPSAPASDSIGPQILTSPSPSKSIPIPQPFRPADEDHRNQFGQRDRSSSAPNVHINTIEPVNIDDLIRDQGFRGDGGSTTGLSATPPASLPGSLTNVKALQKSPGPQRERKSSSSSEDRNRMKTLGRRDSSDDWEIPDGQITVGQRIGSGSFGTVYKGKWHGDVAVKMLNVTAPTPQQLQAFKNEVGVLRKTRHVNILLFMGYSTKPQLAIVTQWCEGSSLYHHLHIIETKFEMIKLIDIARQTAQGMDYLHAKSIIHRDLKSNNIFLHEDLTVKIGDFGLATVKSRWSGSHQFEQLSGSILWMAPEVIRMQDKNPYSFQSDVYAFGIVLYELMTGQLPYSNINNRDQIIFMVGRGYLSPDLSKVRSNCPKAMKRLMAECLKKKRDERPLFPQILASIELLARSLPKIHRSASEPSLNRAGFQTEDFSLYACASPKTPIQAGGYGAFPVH
Method: as §3

FGFR-4 = FGFR-4 (Homo sapiens, UniProt P22455); experiment: Kinase-Glo Plus RTK selectivity assay, FGFR-4; type: biochemical; conditions: 10 μM ATP
Sequence of FGFR-4 (P22455 22-802, species assumed): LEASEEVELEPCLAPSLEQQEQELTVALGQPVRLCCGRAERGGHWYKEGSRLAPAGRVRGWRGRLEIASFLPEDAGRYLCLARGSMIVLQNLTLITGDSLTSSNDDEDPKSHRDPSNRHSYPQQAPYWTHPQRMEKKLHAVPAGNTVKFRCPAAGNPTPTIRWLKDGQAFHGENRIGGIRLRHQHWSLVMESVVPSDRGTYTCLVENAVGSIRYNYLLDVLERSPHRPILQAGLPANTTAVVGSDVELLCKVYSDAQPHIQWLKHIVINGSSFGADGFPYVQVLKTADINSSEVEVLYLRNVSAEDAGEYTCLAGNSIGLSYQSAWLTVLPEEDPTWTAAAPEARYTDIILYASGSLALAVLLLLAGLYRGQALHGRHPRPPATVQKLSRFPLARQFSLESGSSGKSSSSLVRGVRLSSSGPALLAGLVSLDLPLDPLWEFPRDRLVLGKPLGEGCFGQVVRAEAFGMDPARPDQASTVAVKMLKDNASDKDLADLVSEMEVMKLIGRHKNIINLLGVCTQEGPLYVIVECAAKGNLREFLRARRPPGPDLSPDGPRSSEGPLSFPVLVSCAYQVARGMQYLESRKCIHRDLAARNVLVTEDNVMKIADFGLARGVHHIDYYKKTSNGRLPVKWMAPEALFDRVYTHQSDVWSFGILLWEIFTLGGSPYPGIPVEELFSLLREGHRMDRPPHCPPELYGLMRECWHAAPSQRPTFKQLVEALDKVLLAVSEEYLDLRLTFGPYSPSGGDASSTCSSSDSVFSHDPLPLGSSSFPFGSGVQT
Method: as §3

EA.hy926 = experiment: Human endothelial cell (EA.hy926) viability assay, CCK-8; type: cell-based; conditions: CCK-8, 24 h treatment, read-out: Inhibition of human endothelial cell viability, EA.hy926 IC50
Method: In order to determine the anti-angiogenic effect of these multi-target inhibitors, we evaluated their effect on HECs (EA.hy926) viability using cell counting kit-8 (CCK-8) method.
The viability of HECs (EA.hy926) was assessed using the cell counting kit-8 (CCK-8, Sigma, USA) assay according to the manufacturer's instruction. […] After incubation at 37°C for 48 h, the cells were treated with tested compounds at various concentrations for 24 h. Subsequently, premixed CCK-8 and medium (10 μL) were added into the 96-well plates to monitor cell viability and were incubated at 37°C for 2 h. The number of viable cells was assessed by measurement of absorbance at 450 nm by a microplate reader. The viability rate was calculated as experimental OD value/control OD value.

VEGFR-2 [2] = biological target: T1, VEGFR-2; experiment: VEGFR-2/cell membrane chromatography (CMC) affinity evaluation; type: binding; conditions: flow rate 0.6 mL/min, 37°C, 5 mM PBS pH 7.4, 270 nm
Method: In previous studies, artificial cultures highly expressing VEGFR-2 on HEK293 cell lines were constructed. […] Chromatographic conditions: 10 mm×2.0 mm; flow rate0.6 mL/min; column temperature 37°C; mobile phase 5 mM PBS, pH 7.4; detection wavelength 270 nm.
The VEGFR-2 cell membrane stationary phase was prepared as previous reported. Aqueous ammonium acetate buffer solution (pH 7.4, 5 mM) was pumped at a flow rate of 0.2 mL/min as the mobile phase after VEGFR-2/CMC column was loaded onto the chromatography system at the temperature of 37°C. […] The mobile phase was 5.0 mM phosphate burred saline with a 0.6 mL/min flow rate at a column temperature of 37°C. The detected wavelength was 270 nm. The test compound was injected into the VEGFR-2/CMC column and their retention characteristics were identified to evaluate their affinity with VEGFR-2.

Sequence of TIE-2 (Q02763 23-1124): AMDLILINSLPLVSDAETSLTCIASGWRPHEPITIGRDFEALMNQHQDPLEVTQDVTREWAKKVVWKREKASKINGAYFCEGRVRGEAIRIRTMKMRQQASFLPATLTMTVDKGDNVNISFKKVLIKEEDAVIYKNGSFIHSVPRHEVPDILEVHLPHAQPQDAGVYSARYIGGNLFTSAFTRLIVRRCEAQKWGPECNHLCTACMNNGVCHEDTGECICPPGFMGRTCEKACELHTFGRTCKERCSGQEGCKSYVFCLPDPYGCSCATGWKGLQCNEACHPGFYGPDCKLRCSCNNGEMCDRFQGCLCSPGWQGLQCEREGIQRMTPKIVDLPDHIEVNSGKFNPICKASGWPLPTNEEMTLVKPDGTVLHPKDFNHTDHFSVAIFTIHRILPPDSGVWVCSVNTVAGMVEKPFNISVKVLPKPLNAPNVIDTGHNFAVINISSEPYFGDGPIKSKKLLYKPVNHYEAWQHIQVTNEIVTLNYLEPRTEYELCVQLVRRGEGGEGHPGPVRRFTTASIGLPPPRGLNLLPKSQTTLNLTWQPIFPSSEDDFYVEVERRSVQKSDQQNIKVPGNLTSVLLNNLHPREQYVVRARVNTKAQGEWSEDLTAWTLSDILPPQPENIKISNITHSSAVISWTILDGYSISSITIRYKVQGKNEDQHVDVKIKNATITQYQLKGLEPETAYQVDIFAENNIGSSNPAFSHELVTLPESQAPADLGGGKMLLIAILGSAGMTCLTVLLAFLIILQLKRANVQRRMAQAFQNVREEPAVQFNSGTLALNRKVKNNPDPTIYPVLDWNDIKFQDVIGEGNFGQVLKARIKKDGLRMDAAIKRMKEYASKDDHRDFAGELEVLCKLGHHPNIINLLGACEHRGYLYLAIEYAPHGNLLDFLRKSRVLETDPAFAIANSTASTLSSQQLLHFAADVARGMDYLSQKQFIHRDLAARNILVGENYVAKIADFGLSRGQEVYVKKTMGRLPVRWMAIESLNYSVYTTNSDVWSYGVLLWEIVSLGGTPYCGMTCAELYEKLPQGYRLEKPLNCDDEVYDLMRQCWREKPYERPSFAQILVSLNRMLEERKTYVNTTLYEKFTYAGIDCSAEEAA

| SMILES | IC50 (TIE-2) [nM] | IC50 (VEGFR-2 [1]) [nM] | IC50 (VEGFR-1) [nM] | IC50 (EphB4) [nM] | melting point [°C] | IC50 (FGFR-1) [nM] | IC50 (EGFR) [nM] | IC50 (c-Kit) [nM] | IC50 (B-Raf) [nM] | IC50 (FGFR-4) [nM] | IC50 (EA.hy926) [nM] | IC50 (EA.hy926; Homo sapiens, EA.hy 926, 24 h) [nM] | Retention time on VEGFR-2/cell membrane stationary phase column (VEGFR-2 [2]) [min] |
| --- | --- | --- | --- | --- | --- | --- | --- | --- | --- | --- | --- | --- | --- |
| O=C(Nc1ccc(-c2ccc3c(=O)[nH]cnc3c2)cc1)Nc1ccccc1F [QDAU4, 1-(2-fluorophenyl)-3-(4-(4-oxo-3,4-dihydroquinazolin-7-yl)phenyl)urea] | 4.91 | 1.91 | 68.3 | 13.9 | > 300 | 166 | 113 | > 500 | 136 | 83.4 | 8640 | < 10000 |  |
| COc1cc2c(Nc3ccc(Br)cc3F)ncnc2cc1OCC1CCN(C)CC1 [vandetanib, reference compound] |  |  |  |  |  |  |  |  |  |  |  |  | 4.5 |
